From patent US12037340B2, “Pentacyclic derivatives as Zika virus inhibitors” (Gilead Sciences, Inc., priority 2021, dated 2024)

Test system: ZIKV
Experiment: microbe, parasite or virus in culture
Type: cell-based, Zika virus
Settings: 48 hrs

Row | Compound | EC50 (Zika virus, Huh-7) | EC50
1 | CC[C@@H](C)[C@H](NC(=O)OC)C(=O)N1[C@@H](C)CC[C@H]1c1nc(C(C)C)c(-c2ccc3c(c2)COc2cc4c(ccc5nc([C@@H]6CC[C@H](C)N6C(=O)[C@@H](NC(=O)OC)[C@H](C)CC)[nH]c54)cc2-3)[nH]1 [Compound 46, methyl ((2S,3R)-1-((2S,5S)-2-(4-isopropyl-5-(2-((2S,5S)-1-((methoxycarbonyl)-L-alloisoleucyl)-5-methylpyrrolidin-2-yl)-1,11-dihydroisochromeno[4′,3′:6,7]naphtho[1,2-d]imidazol-9-yl)-1H-imidazol-2-yl)-5-methylpyrrolidin-1-yl)-3-methyl-1-oxopentan-2-yl)carbamate] | 0.0267 µM | –
2 | COC(=O)N[C@H](C(=O)N1[C@@H](C)CC[C@H]1c1nc(C(C)C)c(-c2ccc3c(c2)COc2cc4c(ccc5nc([C@@H]6CC[C@H](C)N6C(=O)[C@@H](NC(=O)OC)C(C)(C)CF)[nH]c54)cc2-3)[nH]1)C(C)(C)CF [Compound 47, methyl ((S)-4-fluoro-1-((2S,5S)-2-(5-(2-((2S,5S)-1-((S)-4-fluoro-2-((methoxycarbonyl)amino)-3,3-dimethylbutanoyl)-5-methylpyrrolidin-2-yl)-1,11-dihydroisochromeno[4′,3′:6,7]naphtho[1,2-d]imidazol-9-yl)-4-isopropyl-1H-imidazol-2-yl)-5-methylpyrrolidin-1-yl)-3,3-dimethyl-1-oxobutan-2-yl)carbamate] | 0.0217 µM | –
3 | methyl ((2S,3S)-1-((S)-6-(4-chloro-5-(2-((S)-5-((methoxycarbonyl)-L-isoleucyl)-5-azaspiro[2.4]heptan-6-yl)-1-dihydroisochromeno[4′,3′:6,7]naphtho[1,2-d]imidazol-9-yl)-1H-imidazol-2-yl)-5-azaspiro[2.4]heptan-5-yl)-3-methyl-1-oxopentan-2-yl)carbamate [Compound 3] | – | 0.0186 µM
4 | methyl ((S)-1-((2S,5S)-2-(5-(2-((2S,5S)-1-(O-(tert-butyl)-N-(methoxycarbonyl)-L-threonyl)-5-methylpyrrolidin-2-yl)-1,11-dihydroisochromeno[4′,3′:6,7]naphtho[1,2-d]imidazol-9-yl)-4-chloro-1H-imidazol-2-yl)-5-methylpyrrolidin-1-yl)-3-methyl-1-oxobutan-2-yl)carbamate [Compound 1] | – | 0.0249 µM
